Assay results as given in the Deep4Chem optical property database.
Blank lines part the entries; values can stand above or below the molecule they belong to.

Assay: solvent given as SMILES

emission maximum (in ClC(Cl)Cl): 661 nm
Compound: CCCCCCCCOc1ccc(-c2c3c4n(c(-c5ccc(OCCCCCCCC)cc5)c3c3n2[B-](F)(F)[n+]2ccccc2N=3)[B-](F)(F)[n+]2ccccc2N=4)cc1

emission maximum (in ClCCl): 485 nm
Compound: COc1ccc(-c2ccc(/C=C/c3cnc4ccccc4n3)cc2)cc1

emission maximum (in O): 493.5 nm
Compound: Nc1cc([NH3+])cc(-c2nc3ccccc3s2)c1

emission maximum (in ClCCl): 613 nm
Compound: CC1=CC(C)=[N+]2C1=C(c1ccc(Br)cc1)c1c(C)cc(/C=C/c3ccc[nH]3)n1[B-]2(F)F

emission maximum (in ClCCl): 484 nm
Compound: COc1ccc(-c2cnc3cccc(-c4ccccc4)n23)cc1

emission maximum (in CO): 648 nm
emission maximum (in CS(C)=O): 655 nm
emission maximum (in O): 658 nm
Compound: CCCN1/C(=C/C=C(/C=C/C2=[N+](CCC)c3ccccc3C2(C)C)c2ccncc2)C(C)(C)c2ccccc21

emission maximum (in C1CCCCC1): 396 nm
Compound: COc1ccc2c3c(c4ccc(OC)cc4c2c1)C(C)(C)c1ccc2ccccc2c1-3

emission maximum (in CC#N): 497.02 nm
emission maximum (in CCO): 472.33 nm
emission maximum (in ClCCl): 457 nm
Compound: CN(C)c1ccc(C#Cc2ccc(-c3cc(N(C)C)c4ccccc4c3)cc2)cc1

Further lines, the molecule ahead of its results:

Compound: CN(C)c1ccc(-c2cc3ccc([N+](=O)[O-])cc3c(=O)o2)cc1
emission maximum (in CC(C)=O): 682 nm
emission maximum (in CCCCO): 559 nm
emission maximum (in CCOC(C)=O): 621 nm
emission maximum (in CN(C)C=O): 605 nm
emission maximum (in CO): 605 nm
emission maximum (in ClC(Cl)Cl): 652 nm

Compound: Cc1cc(C)c([B-]2(c3c(C)cc(C)cc3C)[O+]=P(c3ccccc3)(c3ccccc3)c3cc(C#Cc4ccccc4)sc3-c3sc(C#Cc4ccccc4)cc32)c(C)c1
emission maximum (in C1CCOC1): 498 nm

Compound: CCN(CC)c1ccc2cc(-c3cn4ccccc4n3)c(=O)oc2c1
emission maximum (in C1CCOC1): 474 nm
emission maximum (in CC#N): 475 nm
emission maximum (in CCO): 482 nm
emission maximum (in CCOC(C)=O): 468 nm
emission maximum (in CN(C)C=O): 477 nm
emission maximum (in CO): 485 nm
emission maximum (in CS(C)=O): 482 nm
emission maximum (in Cc1ccccc1): 469 nm
emission maximum (in ClC(Cl)Cl): 471 nm
emission maximum (in ClCCl): 478 nm

Compound: CC(C)(C)c1ccc(-c2nc3c4ccc(-c5c6ccccc6cc6ccccc56)cc4c4cc(-c5c6ccccc6cc6ccccc56)ccc4c3n2-c2ccc(C(C)(C)C)cc2)cc1
emission maximum (in C1CCOC1): 428 nm
emission maximum (in C1COCCO1): 429 nm
emission maximum (in CC#N): 455 nm
emission maximum (in CCCCCC): 419 nm
emission maximum (in CCCCOCCCC): 424 nm
emission maximum (in CCN(CC)CC): 421 nm
emission maximum (in CCOC(C)=O): 429 nm
emission maximum (in CCOCC): 424 nm
emission maximum (in CN(C)C=O): 451 nm
emission maximum (in Cc1ccccc1): 428 nm
emission maximum (in ClC=C(Cl)Cl): 429 nm
emission maximum (in ClCCl): 442 nm

Compound: COCCN(CCOC)c1ccc(/C=C/c2sc3c4nc(C)sc4ccc3[n+]2C)cc1
emission maximum (in CO): 601 nm
emission maximum (in ClC(Cl)Cl): 601 nm

Compound: CC(C)c1cccc(C(C)C)c1N1C(=O)c2ccc3c(-c4ccc(C(=O)O)cc4)c4c5ccc6c7c(ccc(c(-c8ccc(C(=O)O)cc8)c4c4ccc(c2c34)C1=O)c75)C(=O)N(c1c(C(C)C)cccc1C(C)C)C6=O
emission maximum (in ClCCl): 682 nm

Compound: CCn1c2ccccc2c2cc(C#Cc3cc(C#Cc4ccc5c(c4)c4ccccc4n5CC)nc(OC)n3)ccc21
emission maximum (in C1CCOC1): 445 nm
emission maximum (in CCOC(C)=O): 442 nm
emission maximum (in CN(C)C=O): 499 nm
emission maximum (in Cc1ccccc1): 411 nm
emission maximum (in ClCCl): 467 nm

Compound: O=S1(=O)c2ccccc2-c2cc(-n3c4ccccc4c4cc(-c5ccc6c(c5)c5ccccc5n6-c5ccccc5)ccc43)ccc21
emission maximum (in O=P(c1ccccc1)(c1ccccc1)c1ccccc1Oc1ccccc1P(=O)(c1ccccc1)c1ccccc1): 462.73 nm

Compound: CC1(C)c2ccccc2N(c2ccc(-c3cc(-c4ccccc4)nc(-c4ccccc4)n3)cc2)c2ccccc21
emission maximum (in Cc1ccccc1): 475.6 nm

Compound: CCCCCCC(CCCCCC)n1c(=O)c2c3ccc4cccc5c6cccc7ccc(c2c1=O)c(c76)c3c45
emission maximum (in C1CCCCC1): 471 nm
emission maximum (in CC#N): 527 nm
emission maximum (in CC(C)=O): 514 nm
emission maximum (in CCCCCC): 469 nm
emission maximum (in CCO): 550 nm
emission maximum (in CCOCC): 495 nm
emission maximum (in CS(C)=O): 534 nm
emission maximum (in Cc1ccccc1): 491 nm
emission maximum (in ClC(Cl)(Cl)Cl): 482 nm
emission maximum (in ClC(Cl)Cl): 522 nm

Compound: CCCCCCOc1ccc2ccc3oc(=O)cc4cc(OCCCCCC)c1c2c43
emission maximum (in CC1CCCO1): 490 nm
